Assay results taken from publication PMC5218480 (PLoS ONE, 2017).

Test system: MV-4-11 cells
Assay: Gene expression microarray analysis (Affymetrix PrimeView) and GSEA
Type: cell-based, human
Design: RFU PODN (11730768_x_at) / Fold change /veh PODN (11730768_x_at) / RFU LINC00158 (11744669_a_at) / Fold change /veh LINC00158 (11744669_a_at) / RFU DUSP10 (11751237_a_at) / Fold change /veh DUSP10 (11751237_a_at) / RFU ID3 (11757404_x_at) / Fold change /veh ID3 (11757404_x_at) / RFU PLEKHG5 (11737974_s_at) / Fold change /veh PLEKHG5 (11737974_s_at) / RFU LRRC4B (11730491_at) / Fold change /veh LRRC4B (11730491_at) / RFU GIMAP4 (11747438_a_at) / Fold change /veh GIMAP4 (11747438_a_at) / RFU KRT8 (11758183_x_at) / Fold change /veh KRT8 (11758183_x_at) / RFU CNN1 (11734310_a_at) / Fold change /veh CNN1 (11734310_a_at) / RFU VPS37D (11726825_at) / Fold change /veh VPS37D (11726825_at) / RFU C10orf10 (11716522_x_at) / Fold change /veh C10orf10 (11716522_x_at) / RFU KIR2DL2 /// KIR2DL4 /// KIR2DL5A /// KIR2DL5B /// KIR2DS1 /// KIR2DS2 /// KIR2DS3 /// KIR2DS4 /// KIR3DL3 /// KIR3DL3 /// KIR3DS1 (11738374_at) / Fold change /veh KIR2DL2 /// KIR2DL4 /// KIR2DL5A /// KIR2DL5B /// KIR2DS1 /// KIR2DS2 /// KIR2DS3 /// KIR2DS4 /// KIR3DL3 /// KIR3DL3 /// KIR3DS1 (11738374_at) / RFU C1QL1 (11718748_at) / Fold change /veh C1QL1 (11718748_at) / RFU TMPRSS4 (11747572_a_at) / Fold change /veh TMPRSS4 (11747572_a_at) / RFU HAMP (11756126_x_at) / Fold change /veh HAMP (11756126_x_at) / RFU RNFT2 (11725882_a_at) / Fold change /veh RNFT2 (11725882_a_at) / RFU NR4A2 (11747474_a_at) / Fold change /veh NR4A2 (11747474_a_at) / RFU ABCC12 (11746883_a_at) / Fold change /veh ABCC12 (11746883_a_at) / RFU TMEM136 (11760407_x_at) / Fold change /veh TMEM136 (11760407_x_at) / RFU CLDN22 /// WWC2 (11732394_at) / Fold change /veh CLDN22 /// WWC2 (11732394_at) / RFU HLA-DPB1 (11760878_x_at) / Fold change /veh HLA-DPB1 (11760878_x_at) / RFU SPINT1 (11716480_a_at) / Fold change /veh SPINT1 (11716480_a_at) / RFU GAP43 (11754022_s_at) / Fold change /veh GAP43 (11754022_s_at) / RFU A4GNT (11735810_at) / Fold change /veh A4GNT (11735810_at) / RFU PRB3 (11715151_x_at) / Fold change /veh PRB3 (11715151_x_at) / RFU TUBB4B (11761932_at) / Fold change /veh TUBB4B (11761932_at) / RFU CAPN14 (11732068_a_at) / Fold change /veh CAPN14 (11732068_a_at) / RFU TMCC2 (11721928_a_at) / Fold change /veh TMCC2 (11721928_a_at) / RFU IRGQ (11745062_a_at) / Fold change /veh IRGQ (11745062_a_at) / RFU FAM174B (11720279_a_at) / Fold change /veh FAM174B (11720279_a_at) / RFU TMPRSS4 (11748680_a_at) / Fold change /veh TMPRSS4 (11748680_a_at) / RFU FAM212B (11763350_a_at) / Fold change /veh FAM212B (11763350_a_at) / RFU PLEKHG5 (11743358_a_at) / Fold change /veh PLEKHG5 (11743358_a_at) / RFU ZSCAN30 (11745921_a_at) / Fold change /veh ZSCAN30 (11745921_a_at) / RFU CMKLR1 (11741424_a_at) / Fold change /veh CMKLR1 (11741424_a_at) / RFU LOC101060620 /// MAPK8IP1 (11723275_at) / Fold change /veh LOC101060620 /// MAPK8IP1 (11723275_at) / RFU SPTSSB (11747773_x_at) / Fold change /veh SPTSSB (11747773_x_at) / RFU PRSS12 (11739890_at) / Fold change /veh PRSS12 (11739890_at) / RFU BIN1 (11741810_x_at) / Fold change /veh BIN1 (11741810_x_at) / RFU WNT11 (11732464_a_at) / Fold change /veh WNT11 (11732464_a_at) / RFU C10orf10 (11716521_a_at) / Fold change /veh C10orf10 (11716521_a_at) / RFU C5orf56 (11738089_at) / Fold change /veh C5orf56 (11738089_at) / RFU CYB561 (11721691_x_at) / Fold change /veh CYB561 (11721691_x_at) / RFU ANKRD19P (11752326_a_at) / Fold change /veh ANKRD19P (11752326_a_at) / RFU OR2T12 /// OR2T33 /// OR2T8 (11738714_s_at) / Fold change /veh OR2T12 /// OR2T33 /// OR2T8 (11738714_s_at) / RFU VCAN (11748164_a_at) / Fold change /veh VCAN (11748164_a_at) / RFU JSRP1 (11732532_at) / Fold change /veh JSRP1 (11732532_at) / RFU KRTAP10-11 (11738290_x_at) / Fold change /veh KRTAP10-11 (11738290_x_at) / RFU MYO3A (11730013_a_at) / Fold change /veh MYO3A (11730013_a_at) / RFU EBF3 (11725865_a_at) / Fold change /veh EBF3 (11725865_a_at) / RFU CAMK2N1 (11719241_x_at) / Fold change /veh CAMK2N1 (11719241_x_at) / RFU C5orf56 (11738088_a_at) / Fold change /veh C5orf56 (11738088_a_at) / RFU OLFML3 (11715873_a_at) / Fold change /veh OLFML3 (11715873_a_at) / RFU LOC100653217 /// NTM (11731650_a_at) / Fold change /veh LOC100653217 /// NTM (11731650_a_at) / RFU MAPK11 (11762145_a_at) / Fold change /veh MAPK11 (11762145_a_at) / RFU FIZ1 (11724087_x_at) / Fold change /veh FIZ1 (11724087_x_at) / RFU OASL (11726364_x_at) / Fold change /veh OASL (11726364_x_at) / RFU SOX15 (11748057_x_at) / Fold change /veh SOX15 (11748057_x_at) / RFU CD79A (11719716_a_at) / Fold change /veh CD79A (11719716_a_at) / RFU HIST1H1D (11736915_at) / Fold change /veh HIST1H1D (11736915_at) / RFU CASKIN2 (11723855_a_at) / Fold change /veh CASKIN2 (11723855_a_at) / RFU LOC730098 (11760151_x_at) / Fold change /veh LOC730098 (11760151_x_at) / RFU OR4N2 (11742367_at) / Fold change /veh OR4N2 (11742367_at) / RFU PRRT2 (11749266_a_at) / Fold change /veh PRRT2 (11749266_a_at) / RFU SNX32 (11753110_a_at) / Fold change /veh SNX32 (11753110_a_at) / RFU CDHR5 (11726645_a_at) / Fold change /veh CDHR5 (11726645_a_at) / RFU RCAN1 (11760418_a_at) / Fold change /veh RCAN1 (11760418_a_at) / RFU FAM167A (11723789_a_at) / Fold change /veh FAM167A (11723789_a_at) / RFU FAM26E (11764081_at) / Fold change /veh FAM26E (11764081_at) / RFU ISYNA1 (11749810_s_at) / Fold change /veh ISYNA1 (11749810_s_at) / RFU ACY1 (11761880_at) / Fold change /veh ACY1 (11761880_at) / RFU 11764098_at / Fold change /veh 11764098_at / RFU SAMD14 (11745864_x_at) / Fold change /veh SAMD14 (11745864_x_at) / RFU NPB (11741838_a_at) / Fold change /veh NPB (11741838_a_at) / RFU TMPRSS6 (11731388_a_at) / Fold change /veh TMPRSS6 (11731388_a_at) / RFU KRTAP10-2 (11738614_at) / Fold change /veh KRTAP10-2 (11738614_at) / RFU ARHGAP8 /// PRR5-ARHGAP8 (11727945_x_at) / Fold change /veh ARHGAP8 /// PRR5-ARHGAP8 (11727945_x_at) / RFU KRTAP5-7 /// NADSYN1 (11734609_at) / Fold change /veh KRTAP5-7 /// NADSYN1 (11734609_at) / RFU RASL12 (11751679_a_at) / Fold change /veh RASL12 (11751679_a_at) / RFU CDKN2B (11736163_a_at) / Fold change /veh CDKN2B (11736163_a_at) / RFU PRF1 (11729649_at) / Fold change /veh PRF1 (11729649_at) / RFU, ZNF638 /// ZNF638-IT1 / Fold change vs veh, ZNF638 /// ZNF638-IT1 / RFU, PANK3 / Fold change vs veh, PANK3 / RFU, SH3YL1 / Fold change vs veh, SH3YL1 / RFU, ZEB2 / Fold change vs veh, ZEB2 / RFU, NRIP1 / Fold change vs veh, NRIP1 / RFU, PTTG1IP / Fold change vs veh, PTTG1IP / RFU, CAPN2 / Fold change vs veh, CAPN2 / RFU, MED14 / Fold change vs veh, MED14 / RFU, SNORA58 / Fold change vs veh, SNORA58 / RFU, C1orf63 / Fold change vs veh, C1orf63 / RFU, LRRFIP1 / Fold change vs veh, LRRFIP1 / RFU, NDUFAF7 / Fold change vs veh, NDUFAF7 / RFU, SLC12A2 / Fold change vs veh, SLC12A2 / RFU, IBTK / Fold change vs veh, IBTK / RFU, ESF1 / Fold change vs veh, ESF1 / Fold change vs veh, TMEM50B / RFU, TAOK1 / Fold change vs veh, TAOK1 / RFU, ACBD3 / Fold change vs veh, ACBD3 / RFU, TMA16 / Fold change vs veh, TMA16 / RFU, RWDD3 / Fold change vs veh, RWDD3 / RFU, BCAT1 / Fold change vs veh, BCAT1 / RFU, EDEM3 / Fold change vs veh, EDEM3 / RFU, TMEM33 / Fold change vs veh, TMEM33 / RFU, WDR75 / Fold change vs veh, WDR75 / RFU, AHCTF1 / Fold change vs veh, AHCTF1 / RFU, TFRC / Fold change vs veh, TFRC / RFU, ZDHHC17 / Fold change vs veh, ZDHHC17 / RFU, NOM1 / Fold change vs veh, NOM1 / RFU, ARL8B / Fold change vs veh, ARL8B / RFU, ZBTB11 / Fold change vs veh, ZBTB11 / RFU, TAMM41 / Fold change vs veh, TAMM41 / RFU, KIAA1704 /// LOC100996395 / Fold change vs veh, KIAA1704 /// LOC100996395 / RFU, ING1 / Fold change vs veh, ING1 / RFU, TRMT61B / Fold change vs veh, TRMT61B / RFU, FUBP3 / Fold change vs veh, FUBP3 / RFU, TP53 / Fold change vs veh, TP53 / RFU, TNKS2 / Fold change vs veh, TNKS2 / RFU, ZFP14 / Fold change vs veh, ZFP14 / RFU, ACTR2 / Fold change vs veh, ACTR2 / RFU, PPP3R1 / Fold change vs veh, PPP3R1 / RFU, PIK3R1 / Fold change vs veh, PIK3R1 / RFU, HNRNPA1 / Fold change vs veh, HNRNPA1 / RFU, RNF170 / Fold change vs veh, RNF170 / RFU, ZNF28 / Fold change vs veh, ZNF28 / RFU, RNGTT / Fold change vs veh, RNGTT / RFU, OGT / Fold change vs veh, OGT / RFU, BRD1 / Fold change vs veh, BRD1 / RFU, MARS / Fold change vs veh, MARS / RFU, ZNF655 / Fold change vs veh, ZNF655 / RFU, FAHD1 / Fold change vs veh, FAHD1 / RFU, BDP1 / Fold change vs veh, BDP1 / RFU, LRRCC1 / Fold change vs veh, LRRCC1 / RFU, ARID1A / Fold change vs veh, ARID1A / RFU, ZNF146 / Fold change vs veh, ZNF146 / RFU, ZNF330 / Fold change vs veh, ZNF330 / RFU, GPN3 / Fold change vs veh, GPN3 / RFU, C9orf123 / Fold change vs veh, C9orf123 / RFU, N4BP2L2 / Fold change vs veh, N4BP2L2 / RFU, ARFIP1 / Fold change vs veh, ARFIP1 / RFU, FAM179B / Fold change vs veh, FAM179B / RFU, BCL10 / Fold change vs veh, BCL10 / RFU, UHRF1BP1L / Fold change vs veh, UHRF1BP1L / RFU, BET1 / Fold change vs veh, BET1 / RFU, CNOT2 / Fold change vs veh, CNOT2 / RFU, ZNF268 / Fold change vs veh, ZNF268 / Fold change vs veh, ZNF507 / RFU, DGCR2 / Fold change vs veh, DGCR2 / RFU, WDSUB1 / Fold change vs veh, WDSUB1 / Fold change vs veh, HSP90B1 /// MIR3652 / RFU, ADSS / Fold change vs veh, ADSS / RFU, GK / Fold change vs veh, GK / RFU, ZNF148 / Fold change vs veh, ZNF148 / RFU, TAF9 / Fold change vs veh, TAF9 / RFU, SLC1A5 / Fold change vs veh, SLC1A5 / RFU, SLMO2 / Fold change vs veh, SLMO2 / RFU, ABCC4 / Fold change vs veh, ABCC4 / RFU, LOC101060439 /// RAP1B / Fold change vs veh, LOC101060439 /// RAP1B / RFU, RFX7 / Fold change vs veh, RFX7 / RFU, GTPBP10 / Fold change vs veh, GTPBP10 / RFU, CNEP1R1 / Fold change vs veh, CNEP1R1 / RFU, BIVM-ERCC5 /// ERCC5 / Fold change vs veh, BIVM-ERCC5 /// ERCC5 / RFU, ILF3 / Fold change vs veh, ILF3 / RFU 11762660_at / Fold change /veh 11762660_at / RFU VCAN (11757783_s_at) / Fold change /veh VCAN (11757783_s_at) / RFU DDX43 (11728927_at) / Fold change /veh DDX43 (11728927_at) / RFU KRT8 (11758188_x_at) / Fold change /veh KRT8 (11758188_x_at) / RFU NKD1 (11759106_at) / Fold change /veh NKD1 (11759106_at) / RFU SRD5A1 (11742802_a_at) / Fold change /veh SRD5A1 (11742802_a_at) / RFU TPSAB1 /// TPSB2 (11721975_s_at) / Fold change /veh TPSAB1 /// TPSB2 (11721975_s_at) / RFU GSTM3 (11746129_a_at) / Fold change /veh GSTM3 (11746129_a_at) / RFU IL23R (11737362_x_at) / Fold change /veh IL23R (11737362_x_at) / RFU TMEM51 (11727254_a_at) / Fold change /veh TMEM51 (11727254_a_at) / RFU PIWIL2 (11732686_x_at) / Fold change /veh PIWIL2 (11732686_x_at) / RFU ORM1 (11744905_x_at) / Fold change /veh ORM1 (11744905_x_at) / RFU CCDC152 (11743942_at) / Fold change /veh CCDC152 (11743942_at) / RFU ECM1 (11717891_a_at) / Fold change /veh ECM1 (11717891_a_at) / RFU IL23R (11748794_a_at) / Fold change /veh IL23R (11748794_a_at) / RFU TNFAIP8L3 (11732012_x_at) / Fold change /veh TNFAIP8L3 (11732012_x_at) / RFU MBOAT4 (11741988_at) / Fold change /veh MBOAT4 (11741988_at) / RFU 11764193_at / Fold change /veh 11764193_at / RFU TMEM53 (11763286_at) / Fold change /veh TMEM53 (11763286_at) / RFU MAGEB2 (11727129_at) / Fold change /veh MAGEB2 (11727129_at) / RFU TMEM200A (11744735_a_at) / Fold change /veh TMEM200A (11744735_a_at) / RFU CCDC152 (11751479_a_at) / Fold change /veh CCDC152 (11751479_a_at) / RFU FAM211A (11726209_a_at) / Fold change /veh FAM211A (11726209_a_at) / RFU RGS16 (11746705_a_at) / Fold change /veh RGS16 (11746705_a_at) / RFU VCAN (11755009_s_at) / Fold change /veh VCAN (11755009_s_at) / RFU RHOB (11743442_s_at) / Fold change /veh RHOB (11743442_s_at) / RFU RGS16 (11720943_a_at) / Fold change /veh RGS16 (11720943_a_at) / RFU RGS16 (11720944_at) / Fold change /veh RGS16 (11720944_at) / RFU, VPS4B / Fold change vs veh, VPS4B / RFU, CREB1 / Fold change vs veh, CREB1 / RFU, DNAJC13 / Fold change vs veh, DNAJC13 / RFU, GNAQ / Fold change vs veh, GNAQ / RFU, CDK5R1 / Fold change vs veh, CDK5R1 / RFU, ZRANB3 / Fold change vs veh, ZRANB3 / RFU, CUL4A / Fold change vs veh, CUL4A / RFU, CCNY / Fold change vs veh, CCNY / RFU, UFL1 / Fold change vs veh, UFL1 / RFU, COG3 / Fold change vs veh, COG3 / RFU, DIAPH2 / Fold change vs veh, DIAPH2 / RFU, SKA2 / Fold change vs veh, SKA2 / RFU, AFF3 / Fold change vs veh, AFF3 / RFU, LMF1 / Fold change vs veh, LMF1 / RFU, IPO11 / Fold change vs veh, IPO11 / RFU, DFFB / Fold change vs veh, DFFB / RFU, FOXP1 / Fold change vs veh, FOXP1 / RFU, CARD8 / Fold change vs veh, CARD8 / RFU, STRN3 / Fold change vs veh, STRN3 / RFU, ADK / Fold change vs veh, ADK / RFU, RASSF2 / Fold change vs veh, RASSF2 / RFU, WIPF1 / Fold change vs veh, WIPF1 / RFU, LARP1B / Fold change vs veh, LARP1B / RFU, RASA1 / Fold change vs veh, RASA1 / RFU, RB1 / Fold change vs veh, RB1 / RFU, PPFIA1 / Fold change vs veh, PPFIA1 / RFU, MAT2A / Fold change vs veh, MAT2A / RFU, CCT5 / Fold change vs veh, CCT5 / RFU, WDR92 / Fold change vs veh, WDR92 / RFU, CUX1 / Fold change vs veh, CUX1 / RFU, TTC7A / Fold change vs veh, TTC7A / RFU, TMEM135 / Fold change vs veh, TMEM135 / RFU, DEPTOR / Fold change vs veh, DEPTOR / RFU, CPM / Fold change vs veh, CPM / RFU, DNAJB6 / Fold change vs veh, DNAJB6 / RFU, CACNA2D3 / Fold change vs veh, CACNA2D3 / RFU, DTX4 / Fold change vs veh, DTX4 / RFU, TFCP2 / Fold change vs veh, TFCP2 / RFU, GMCL1 /// GMCL1P1 / Fold change vs veh, GMCL1 /// GMCL1P1 / RFU, AEBP2 / Fold change vs veh, AEBP2 / RFU, SNHG1 /// SNORD22 /// SNORD25 /// SNORD26 /// SNORD27 /// SNORD28 /// SNORD29 /// SNORD31 / Fold change vs veh, SNHG1 /// SNORD22 /// SNORD25 /// SNORD26 /// SNORD27 /// SNORD28 /// SNORD29 /// SNORD31 / Fold change (Aza/veh), C12orf56 (ProbeSet 11735607_a_at) / Fold change (ACY-1035/veh), C12orf56 (ProbeSet 11735607_a_at) / Fold change (Aza/veh), FGFR1OP (ProbeSet 11751329_s_at) / Fold change (ACY-1035/veh), FGFR1OP (ProbeSet 11751329_s_at) / Fold change (Aza/veh), VPS36 (ProbeSet 11739960_a_at) / Fold change (ACY-1035/veh), VPS36 (ProbeSet 11739960_a_at) / RFU SYPL1 (11715823_x_at) / Fold change /veh SYPL1 (11715823_x_at) / RFU IGFBP7 (11715501_s_at) / Fold change /veh IGFBP7 (11715501_s_at) / RFU REEP3 (11722064_at) / Fold change /veh REEP3 (11722064_at) / RFU IGLL1 (11728026_x_at) / Fold change /veh IGLL1 (11728026_x_at): dose or concentration left out as unconfirmed
Conditions: ProbeSet 11738335_x_at; LIST B

Nc1ncn([C@@H]2O[C@H](CO)[C@@H](O)[C@H]2O)c(=O)n1 [azacitidine]
RFU, TP53: 77.85 RFU
